Experimental data as given in US7618988B2, “Use of substituted aminomethyl chromans” (Merck Patentgesellschaft, priority 2001, dated 2009).

Assays:
[1] = tested on: rat; assay: striatonigral degeneration model in the rat (turning behavior); format: in vivo; conditions: induced by apomorphine or amphetamine
Text: Another more recent animal model is the striatonigral degeneration approach in the rat according to G. K. Wenning et al., J. Neural Transm. Suppl., 1999; 55: 103-113. Rats receive an unilateral injection of 6-hydroxydopamine into the left medial forebrain bundle followed by an injection of quinolinic acid into the ipsilateral striatum inducing nigrostriatal degeneration. The degeneration results in turning behavior to a challenge with dopaminomimetics such as apomorphine or amphetamine. Turning behavior is measured by an automated recorder.

[2] = biological target: dopamine D4 receptors (Homo sapiens, UniProt P21917); assay: dopamine D4 receptor radioligand binding; conditions: in vitro radioligand binding
Sequence of dopamine D4 receptors (P21917 whole entry): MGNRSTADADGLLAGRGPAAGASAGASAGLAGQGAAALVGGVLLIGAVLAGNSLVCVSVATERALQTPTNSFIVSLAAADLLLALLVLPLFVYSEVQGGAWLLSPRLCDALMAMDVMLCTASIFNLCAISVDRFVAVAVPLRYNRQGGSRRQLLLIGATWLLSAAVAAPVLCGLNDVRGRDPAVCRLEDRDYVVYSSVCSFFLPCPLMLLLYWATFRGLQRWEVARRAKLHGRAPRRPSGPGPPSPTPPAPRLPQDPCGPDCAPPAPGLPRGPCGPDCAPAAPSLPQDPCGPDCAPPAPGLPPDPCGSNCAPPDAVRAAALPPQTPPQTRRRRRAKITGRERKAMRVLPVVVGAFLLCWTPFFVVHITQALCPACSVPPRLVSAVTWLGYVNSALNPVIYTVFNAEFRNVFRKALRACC
Text: (§1) The affinity to the 5-HT1A receptor can be determined in vitro by radioligand binding experiments according to Cossery J M et al. (Eur. J. Pharmacol. 1987; 140: 143-155). The functional agonistic properties at the 5HT1A receptor can be determined in vitro in the GTP-gamma-S test (Newman-Tancredi A et al., Eur. J. Pharmacol.1996; 307: 107-111). A standard in vivo animal model to test for the 5HT1A agonistic properties is the ultrasonic vocalization test in rats (e.g. deFry J et al., Eur. J. Pharmacol. 1993; 249: 331-339; Sanchez C, Behav. Pharmacol. 1993; 4: 269-277). The affinity for dopamine D4 receptors can be determined in vitro by radioligand binding experiments according to Klokow M et al. (Drug Res. 1986; 36: 197-200).

[3] = tested on: Parkinsonian cynomolgus monkey; assay: MPTP Parkinsonian cynomolgus monkey, parkinsonian symptoms (Laval University Disability Scale); format: in vivo
Text: A typical animal model for idiopathic Parkinson's disease is the Parkinsonian cynomolgus monkey according to P. J. Blanchet et al., Exp. Neurology 1998; 153: 214-222. Monkeys render parkinsonian by repeated injections of 1-methyl-4-phenyl-1,2,3,6-tetrahydropyridine (MPTP). Parkinsonian symptoms are qualitatively assessed by the use of the Laval University Disability Scale (B. Gomez-Mancilla et al., 1993; Mov. Disord. 8: 144-150) measuring the following symptoms: posture, mobility, climbing, gait, holding food, vocalizing, grooming, social interaction.

[4] = tested on: Parkinsonian cynomolgus monkey; assay: MPTP Parkinsonian cynomolgus monkey, l-dopa-induced adverse effects; format: in vivo; conditions: MPTP monkeys chronically treated with l-dopa
Procedure: Treatment of adverse effects of conventional anti-Parkinsonian drugs as defined above are determined in a modification of the animal model of the Parkinsonian cynomolgus monkey according to P. J. Blanchet et al., Exp. Neurology 1998; 153: 214-222. Monkeys render parkinsonian by repeated injections of 1-methyl-4-phenyl-1,2,3,6-tetrahydropyridine (MPTP). The Parkinsonian monkeys are chronically treated with the standard 1-dopa therapy according to P. J. Blanchet et al., Mov. Disord., 1998; 13: 798-802. Longterm treatment with l-dopa induces extrapyramidal motor side effects and psychotic states which are both qualitatively and quantitatively, assessed by the Abnormal Involuntary Movement Scale (P. J. Blanchet et al., Mov. Disord. 1998; 13: 798-802) for different body parts (face, neck, trunk, each limb) and by rating for psychotic states by observing the monkey's attention, reactivity and mobility.

[5] = tested on: mutant dystonic hamster; assay: mutant dystonic hamster; format: in vivo; conditions: scoring system
Text: A typical animal model is the mutant dystonic hamster according to A. Richter and W. Löscher, Prog. Neurobiol. 1998; 54: 633-677. In this genetically dystonic hamsters, dystonic attacks are provoked by taking the animal from the home cage and placing it on a balance. The dystonic syndrome consists of a sequence of abnormal movements, and the severity of the single symptoms is rated by a scoring system.

[6] = tested on: Weaver mutant mouse; assay: Weaver mutant mouse (locomotor activity); conditions: in vivo
Text: (§2) Typical genetic models in mutant animals are the Campus Syndrome in the Pietrain pig according to A. Richter et al. (Exp. Neurology, 1995; 134: 205-213) or the Weaver mutant mouse according to J. R. Simon and B. Ghetti (Mol. Neurobiol., 1994; 9: 183-189). In the Campus Syndrome model, these mutant pigs show a high-frequency tremor when standing and during locomotion, but not while lying at rest. Assessment of tremor is made by accelerometric recording. In the Weaver mutant mouse, degenerative cerebellar atrophy is […] in association with tremor, gait instability, and toppling over the sides after a few steps.

[7] = tested on: Pietrain pig; assay: Campus Syndrome in the Pietrain pig (tremor); conditions: in vivo
Text: as §2

[8] = tested on: rats; assay: neuroleptics-induced muscle rigidity in rats; format: in vivo, rat; conditions: enhanced by haloperidol
Text: A typical animal model is neuroleptics-induced muscle rigidity in rats according to S. Wolfarth et al., Arch. Pharmacol. 1992; 345: 209-212. Rats are challenged with the conventional neuroleptic drug haloperidol which enhances muscle tone. Muscle tone is electromechanically measured as the resistence to passive flexion and extension of the hind limb.

[9] = biological target: 5HT1A receptor (Homo sapiens, UniProt P08908); assay: GTP-gamma-S test (5HT1A agonism); format: biochemical; conditions: in vitro, 5HT1A agonistic properties; read-out: ED50 in GTP-gamma-S test
Sequence of 5HT1A receptor (P08908 whole entry): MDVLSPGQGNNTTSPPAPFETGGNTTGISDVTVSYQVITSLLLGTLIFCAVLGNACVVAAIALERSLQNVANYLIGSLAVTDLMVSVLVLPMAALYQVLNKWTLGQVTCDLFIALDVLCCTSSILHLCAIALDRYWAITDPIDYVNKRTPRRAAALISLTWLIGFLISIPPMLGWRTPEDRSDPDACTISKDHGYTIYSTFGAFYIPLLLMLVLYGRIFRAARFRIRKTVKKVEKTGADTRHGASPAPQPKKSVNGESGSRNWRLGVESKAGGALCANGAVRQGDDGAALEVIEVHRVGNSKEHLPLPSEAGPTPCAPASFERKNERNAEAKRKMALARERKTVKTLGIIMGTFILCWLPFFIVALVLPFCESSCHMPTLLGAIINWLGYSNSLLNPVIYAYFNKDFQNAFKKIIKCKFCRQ
Text: as §1

[10] = tested on: rats; assay: ultrasonic vocalization test in rats; conditions: Rattus norvegicus, in vivo
Text: as §1

[11] = biological target: D2 receptors (Homo sapiens, UniProt P14416); assay: binding / inhibitory effect at dopamine D2 receptor
Sequence of D2 receptors (P14416 whole entry): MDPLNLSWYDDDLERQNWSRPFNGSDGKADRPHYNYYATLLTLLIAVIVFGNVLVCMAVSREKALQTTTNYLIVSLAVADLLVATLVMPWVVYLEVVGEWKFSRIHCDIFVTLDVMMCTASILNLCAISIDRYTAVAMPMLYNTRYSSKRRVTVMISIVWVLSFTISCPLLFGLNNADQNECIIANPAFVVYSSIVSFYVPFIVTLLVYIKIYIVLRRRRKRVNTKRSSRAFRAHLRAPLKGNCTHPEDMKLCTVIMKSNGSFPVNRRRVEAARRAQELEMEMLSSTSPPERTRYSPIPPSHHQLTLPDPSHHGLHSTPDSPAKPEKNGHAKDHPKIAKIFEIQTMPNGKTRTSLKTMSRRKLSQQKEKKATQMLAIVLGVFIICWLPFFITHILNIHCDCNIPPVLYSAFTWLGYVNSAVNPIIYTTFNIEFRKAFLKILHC

[12] = tested on: rats; assay: systemic 3-nitropropionic acid (3-NP) model in rats; format: in vivo, rat
Procedure: A typical animal model is the systemic 3-nitropropionic acid (3-NP) model in rats according to C. V. Borlongan et al., Brain Res., 1995; 697: 254-257. Rats are treated with injections of the selective striatal neurotoxin 3-NP i.p. every fourth day (C. V. Borlongan et al., Brain Res. Protocols, 1997; 1: 253-257). After two injections of 3-NP, rats display nocturnal hyperactivity reflecting symptoms of early Huntington's disease, whereas rats treated with four injections of 3-NP display nocturnal akinesia (hypoactivity) reflecting symptoms of late Huntington's disease. Nocturnal activity is automatically measured in conventional acitivity cages by infrared beams. (2R,4R)-2-({[5-(4-fluorophenyl)-pyridin-3ylmethyl]-amino}-methyl)-chroman-4-ol or a pharmaceutical acceptable salt or solvate thereof reduce both the nocturnal hyperactivity and akinesia.

**Q.** For `O[C@@H]1C[C@H](CNCc2cncc(-c3ccc(F)cc3)c2)Oc2ccccc21` [(2R,4R)-2-({[5-(4-fluorophenyl)-pyridin-3ylmethyl]-amino}-methyl)-chroman-4-ol], which turning behavior [1] is on record?
**A.** dose-dependently antagonized

**Q.** And the IC50 [2]?
**A.** 12 nM

**Q.** What about the parkinsonian symptoms ([3]; Laval University Disability Scale) of the same molecule?
**A.** reduce all the parkinsonian symptoms

**Q.** And the total activity ([3]; cynomolgus monkey, in vivo)?
**A.** increased total activity

**Q.** What about the “choreiform and dystonic dyskinesias (Abnormal Involuntary Movement Scale)” value [4] of the same molecule?
**A.** reduce overall choreiform dyskinesias and dystonic dyskinesias

**Q.** And the psychotic states [4]?
**A.** reduce

**Q.** What about the “severity of dystonic symptoms” value [5] of the same molecule?
**A.** dose-dependently reduce the severity of dystonic symptoms

**Q.** What about the locomotor activity [6] of the same molecule?
**A.** enhance locomotor activity

**Q.** What about the “tremor when standing and during locomotion” value [7] of the same molecule?
**A.** reduce disabling tremor when standing and during locomotion

**Q.** And the muscle tone [8]?
**A.** decrease the muscle tone enhanced by haloperidol

**Q.** What about the EC50 [9] of the same molecule?
**A.** 33 nM

**Q.** What about the ED50 [10] of the same molecule?
**A.** 2 mg/kg

**Q.** What about the “binding to D2 receptors” value [11] of the same molecule?
**A.** no or only a very weak binding

**Q.** And the nocturnal akinesia ([12]; after four injections of 3-NP)?
**A.** reduce

**Q.** What about the nocturnal hyperactivity ([12]; after two injections of 3-NP) of the same molecule?
**A.** reduce
